The values below are quoted from earlier work in patent publication US11707436B2, “Methods of treating inflammatory disorders and global inflammation with compositions comprising phospholipid nanoparticle encapsulations of NSAIDS” (NanoSphere Health Sciences, LLC, priority 2014, dated 2023).

In brackets after ≈: the same amount, converted by molar mass.

Data set [1] concerns NF-KappaB. As to conditions: highly variable efficacy.
The conditions of data set [2]: for Solubility of NSAIDs at 25 C: source drugbank.ca.
The test system of data set [3] is NF-KappaB. The conditions noted are these: for inhibition of NF-kappaB activity: concentrations comparable to those used in therapy; for inhibition of activation of the NF-KappaB pathway: concentrations measured in serum of treated patients.
For data set [4] the following is noted: clinical studies.
For data set [5] the following is noted: after removal of lower third molars.
The conditions of data set [6]: renal colic.

Regarding `Oc1ccc(C=Cc2cc(O)cc(O)c2)cc1` [resveratrol], the “inhibition of TNF-induced NF-KappaB activation” value in the data set on NF-KappaB [1] was “inhibited”.
Turning to `CC(C)Cc1ccc(C(C)C(=O)O)cc1` (centres unmarked) [Ibuprofen], in data set [2], the “Solubility of NSAIDs at 25 C” value is 21000 µg/mL and the “solubility water at 25° C” value was 21000 µg/mL (≈ 102 mM). Besides, the “inhibition of NF-kappaB activity” value with NF-KappaB [3] is given as “effectively inhibit”. Moreover, the “inhibition of TNF-induced NF-KappaB activation” value in the data set with NF-KappaB [1] is on record as “inhibited”.
`O=C(O)Cc1ccccc1Nc1c(Cl)cccc1Cl` [Diclofenac]: the “Solubility of NSAIDs at 25 C” value in data set [2] was 50000 µg/mL.
On to `COc1ccc2cc([C@H](C)C(=O)O)ccc2c1` [Naproxen], for which, in the data set on NF-KappaB [3], the “inhibition of NF-kappaB activity” value was “effectively inhibit”. Besides, in the data set on NF-KappaB [1], the “inhibition of TNF-induced NF-KappaB activation” value was “inhibited”.
Take `CC(C(=O)O)c1ccc(N2CC=CC2)c(Cl)c1` (centres unmarked) [piroprofen]: in data set [4], the “concentrations in CSF” value is reported as “minimal concentrations”.
As for `COc1ccc2c(c1)c(CC(=O)O)c(C)n2C(=O)c1ccc(Cl)cc1` [Indomethacin], in data set [2], the “Solubility of NSAIDs at 25 C” value was 937 µg/mL. Further, the “concentrations in CSF” value in data set [4] is “minimal concentrations”.
On to `COc1cc(/C=C/C(=O)CC(=O)/C=C/c2ccc(O)c(OC)c2)ccc1O` [curcumin], for which, in the data set with NF-KappaB [1], the “inhibition of TNF-induced NF-KappaB activation” value was “inhibited”.
For `O=C(O)c1ccccc1O` [Salicylic acid], in data set [2], the “Solubility of NSAIDs at 25 C” value was 3000 µg/mL and the “solubility water at 25° C” value is 3000 µg/mL (≈ 21.7 mM).
Consider `CC/C(=C(\c1ccccc1)c1ccc(OCCN(C)C)cc1)c1ccccc1` [tamoxifen], for which the “inhibition of TNF-induced NF-KappaB activation” value in the data set on NF-KappaB [1] is reported as “inhibited”.
Regarding `CC1=C(CC(=O)O)c2cc(F)ccc2/C1=C\c1ccc([S+](C)[O-])cc1` (centres unmarked) [sulindac], the “inhibition of TNF-induced NF-KappaB activation” value with NF-KappaB [1] was “inhibited”.
For `CN1C(C(=O)Nc2ccccn2)=C(O)c2ccccc2S1(=O)=O` [piroxicam], the “pain scores, oral versus sublingual route” value in data set [5] is reported as “no significant differences”. Further, the “efficacy of sublingual versus IM injection” value in data set [6] is “as effective as the IM injection”.
Turning to `CC(C(=O)O)c1cccc(C(=O)c2ccccc2)c1` (centres unmarked) [Ketoprofen], in data set [4], the “concentrations in CSF” value is “minimal concentrations”.
As to `CC(=O)Oc1ccccc1C(=O)O` [Acetylsalicylic acid], the “Solubility of NSAIDs at 25 C” value in data set [2] was 3300 µg/mL. Also, in the data set with NF-KappaB [3], the “inhibition of NF-kappaB activity” value is recorded as “effectively inhibit” and the “inhibition of activation of the NF-KappaB pathway” value was “inhibit activation”. Moreover, the “inhibition of TNF-induced NF-KappaB activation” value in the data set on NF-KappaB [1] is recorded as “inhibited”.
With `O=C([O-])c1ccccc1O.[Na+]` [salicylate, sodium salicylate], the “inhibition of activation of the NF-KappaB pathway” value in the data set on NF-KappaB [3] is “inhibit activation”.
Take `C=C(C)[C@@H]1CCC(C)=C[C@H]1c1c(O)cc(CCCCC)cc1O` [Cannabidiol]: in data set [2] (words only), the solubility in water entry was “insolubility in water”. In addition, the “NF-Kappa B activation, pro-inflammatory cytokines and mediators (TNF-alpha, iNOS)” value with NF-Kappa B was “attenuate”.
